The results in this text go back to paper PMC9837997, “Purification, Characterization and anticancer activity of L-methionine γ-lyase from thermo-tolerant Aspergillus fumigatus” (Microbial Cell Factories, 2023).

This assay has as its system T1, L-methionine γ-lyase (MGL); A. fumigatus L-methioninase.
T1 construct: native extracellular enzyme purified from culture supernatant (heat treatment, Sephadex G-100); about 46 kDa on SDS-PAGE; homodimer
The assay can be described thus: DTNB assay of released methanethiol at […] nm, Lineweaver-Burk plot. The format is biochemical, Aspergillus fumigatus. Conditions: 0.05 M potassium phosphate pH 7.0, 0.01 mM PLP, 0.25 mM DTNB, 30 °C; read-out: apparent Km.

Turning to `CSCC[C@H](N)C(=O)O` [L-methionine], the Km stood at 20.6 mM.
